Measured values taken from patent publication US20120295247A1, “PORCINE SEMINAL MATERIAL COMPOSITION FOR ARTIFICIAL INSEMINATION OF SOWS” (GENES DIFFUSION, priority 2009, published 2012).

Test system: spermatozoa present in free semen
Source text: In order to obtain efficient fertilization, more than 50% of the spermatozoa have to be […] (i.e. having an individual displacement velocity of more than 20 micrometers per second).
Gedil® is a diluting agent consisting of a biological medium favorable to preservation of spermatozoa.

[Ba+2].[Cl-].[Cl-] [BaCl2, barium chloride]
motility of the spermatozoa (BaCl2 at 5 or 10% on free semen, after two days): significant reduction
effect on essential properties (such as the motility) of porcine spermatozoa (products present in the capsules): alter the essential properties
toxicity (or stress) for spermatozoa (spermatozoa diluted in media other than Gedil, addition of BaCl2): toxicity
